Measured values from patent US12077503B2, “Substituted cyclic amides and their use as herbicides” (FMC CORPORATION, priority 2015, dated 2024).

Columns and labels:
Type in all cases: in vivo
[1] = system: ivy-leaved morning glory (Ipomoea hederacea); assay: Test G Post-Emergence Protocol; conditions: Ipomoea, post-emergence, 312 h
How it was run: (§1)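 Foliar application was made 8 days after sowing, using an aqueous spray of the active in acetone/water (50:50) with 0.5% Tween 20, at doses of 15.625, 62.5 or 250 g/ha. Injury was assessed 13 days later, where 100 meant the plant was fully damaged.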

[2] = system: corn (Zea mays); assay: Test G Post-Emergence Protocol; conditions: Zea mays, post-emergence, 312 h
How it was run: as §1

[3] = system: barnyardgrass (Echinochloa crus-galli); assay: Test G Post-Emergence Protocol; conditions: Echinochloa crus-galli, post-emergence, 312 h
How it was run: as §1

[4] = system: giant foxtail (Setaria faberi); assay: Test G Post-Emergence Protocol; conditions: Setaria faberi, post-emergence, 312 h
How it was run: as §1

[5] = system: velvetleaf (Abutilon theophrasti); assay: Test G Post-Emergence Protocol; conditions: Abutilon theophrasti, post-emergence, 312 h
How it was run: as §1

[6] = system: redroot pigweed (Amaranthus retroflexus); assay: Test G Post-Emergence Protocol; conditions: Amaranthus retroflexus, post-emergence, 312 h
How it was run: as §1

[7] = system: ivy-leaved morning glory (Ipomoea hederacea); assay: Test G Pre-Emergence Protocol; conditions: Ipomoea, pre-emergence, 312 h, evaluated after 13 days
How it was run: (§2)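 Pre-emergence spray, 15.625/62.5/250 g/ha, vehicle acetone:water 50:50 + 0.5% Tween 20, applied 1 d after sowing. Glasshouse 24/16° C, 14 h light, 65% RH, watered twice daily. Visual damage rating at 13 d, 0–100 scale.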

[8] = system: corn (Zea mays); assay: Test G Pre-Emergence Protocol; conditions: Zea mays, pre-emergence, 312 h, evaluated after 13 days
How it was run: as §2

[9] = system: barnyardgrass (Echinochloa crus-galli); assay: Test G Pre-Emergence Protocol; conditions: Echinochloa crus-galli, pre-emergence, 312 h, evaluated after 13 days
How it was run: as §2

[10] = system: giant foxtail (Setaria faberi); assay: Test G Pre-Emergence Protocol; conditions: Setaria faberi, pre-emergence, 312 h, evaluated after 13 days
How it was run: as §2

[11] = system: velvetleaf (Abutilon theophrasti); assay: Test G Pre-Emergence Protocol; conditions: Abutilon theophrasti, pre-emergence, 312 h, evaluated after 13 days
How it was run: as §2

[12] = system: redroot pigweed (Amaranthus retroflexus); assay: Test G Pre-Emergence Protocol; conditions: Amaranthus retroflexus, pre-emergence, 312 h, evaluated after 13 days
How it was run: as §2

Compound: CN1C[C@@H](c2ccc(C(F)(F)F)nc2)[C@H](C(=O)Nc2ccccc2F)C1=O (racemic) [Compound 1419]
- pest or weed control at 15.625 g/ha ([1]; 15.625 g ai/ha, evaluated after 13 days (100=total damage to plant; 0=no damage to plant), read-out: Morningglory, Ivy-leaved damage rating): 0%
- pest or weed control at 62.5 g/ha ([1]; 62.5 g ai/ha, evaluated after 13 days, read-out: Morningglory, Ivy-leaved damage rating (100=total damage to plant; 0=no damage to plant)): 20%
- pest or weed control at 250 g/ha ([1]; 250 g ai/ha, evaluated after 13 days, read-out: damage to plant, Morningglory, Ivy-leaved (100=total damage to plant; 0=no damage to plant)): 10%
- plant injury at 15.625 g/ha ([2]; 15.625 g ai/ha, evaluated after 13 days (100=total damage to plant; 0=no damage to plant), read-out: Corn damage rating): 10%
- plant injury at 62.5 g/ha ([2]; 62.5 g ai/ha, evaluated after 13 days, read-out: Corn damage rating (100=total damage to plant; 0=no damage to plant)): 10%
- plant injury at 250 g/ha ([2]; 250 g ai/ha, evaluated after 13 days, read-out: damage to plant, Corn (100=total damage to plant; 0=no damage to plant)): 20%
- pest or weed control at 15.625 g/ha ([3]; 15.625 g ai/ha, evaluated after 13 days (100=total damage to plant; 0=no damage to plant), read-out: Barnyardgrass damage rating): 30%
- pest or weed control at 62.5 g/ha ([3]; 62.5 g ai/ha, evaluated after 13 days, read-out: Barnyardgrass damage rating (100=total damage to plant; 0=no damage to plant)): 50%
- pest or weed control at 250 g/ha ([3]; 250 g ai/ha, evaluated after 13 days, read-out: damage to plant, Barnyardgrass (100=total damage to plant; 0=no damage to plant)): 60%
- pest or weed control at 15.625 g/ha ([4]; 15.625 g ai/ha, evaluated after 13 days (100=total damage to plant; 0=no damage to plant), read-out: Foxtail, Giant damage rating): 10%
- pest or weed control at 62.5 g/ha ([4]; 62.5 g ai/ha, evaluated after 13 days, read-out: Foxtail, Giant damage rating (100=total damage to plant; 0=no damage to plant)): 60%
- pest or weed control at 250 g/ha ([4]; 250 g ai/ha, evaluated after 13 days, read-out: damage to plant, Foxtail, Giant (100=total damage to plant; 0=no damage to plant)): 70%
- pest or weed control at 15.625 g/ha ([5]; 15.625 g ai/ha, evaluated after 13 days (100=total damage to plant; 0=no damage to plant), read-out: Velvetleaf damage rating): 10%
- pest or weed control at 62.5 g/ha ([5]; 62.5 g ai/ha, evaluated after 13 days, read-out: Velvetleaf damage rating (100=total damage to plant; 0=no damage to plant)): 10%
- pest or weed control at 250 g/ha ([5]; 250 g ai/ha, evaluated after 13 days, read-out: damage to plant, Velvetleaf (100=total damage to plant; 0=no damage to plant)): 0%
- pest or weed control at 15.625 g/ha ([6]; 15.625 g ai/ha, evaluated after 13 days (100=total damage to plant; 0=no damage to plant), read-out: Pigweed, Redroot damage rating): 10%
- pest or weed control at 62.5 g/ha ([6]; 62.5 g ai/ha, evaluated after 13 days, read-out: Pigweed, Redroot damage rating (100=total damage to plant; 0=no damage to plant)): 20%
- pest or weed control at 250 g/ha ([6]; 250 g ai/ha, evaluated after 13 days, read-out: damage to plant, Pigweed, Redroot (100=total damage to plant; 0=no damage to plant)): 30%
- pest or weed control at 15.625 g/ha ([7]; 15.625 g ai/ha, read-out: Morning-glory, Ivy-leaved damage rating (100=total damage to plant; 0=no damage to plant)): 0%
- pest or weed control at 62.5 g/ha ([7]; 62.5 g ai/ha, 100=total damage to plant, 0=no damage to plant, read-out: plant damage rating, Morningglory, Ivy-leaved): 0%
- pest or weed control at 250 g/ha ([7]; 250 g ai/ha, read-out: Morningglory, Ivy-leaved damage rating (100=total damage to plant; 0=no damage to plant)): 60%
- plant injury at 15.625 g/ha ([8]; 15.625 g ai/ha, read-out: Corn damage rating (100=total damage to plant; 0=no damage to plant)): 0%
- plant injury at 62.5 g/ha ([8]; 62.5 g ai/ha, 100=total damage to plant, 0=no damage to plant, read-out: plant damage rating, Corn): 0%
- plant injury at 250 g/ha ([8]; 250 g ai/ha, read-out: Corn damage rating (100=total damage to plant; 0=no damage to plant)): 50%
- pest or weed control at 15.625 g/ha ([9]; 15.625 g ai/ha, read-out: Barnyard grass damage rating (100=total damage to plant; 0=no damage to plant)): 10%
- pest or weed control at 62.5 g/ha ([9]; 62.5 g ai/ha, 100=total damage to plant, 0=no damage to plant, read-out: plant damage rating, Barnyardgrass): 80%
- pest or weed control at 250 g/ha ([9]; 250 g ai/ha, read-out: Barnyardgrass damage rating (100=total damage to plant; 0=no damage to plant)): 90%
- pest or weed control at 15.625 g/ha ([10]; 15.625 g ai/ha, read-out: Foxtail, Giant damage rating (100=total damage to plant; 0=no damage to plant)): 10%
- pest or weed control at 62.5 g/ha ([10]; 62.5 g ai/ha, 100=total damage to plant, 0=no damage to plant, read-out: plant damage rating, Foxtail, Giant): 80%
- pest or weed control at 250 g/ha ([10]; 250 g ai/ha, read-out: Foxtail, Giant damage rating (100=total damage to plant; 0=no damage to plant)): 90%
- pest or weed control at 15.625 g/ha ([11]; 15.625 g ai/ha, read-out: Velvetleaf damage rating (100=total damage to plant; 0=no damage to plant)): 0%
- pest or weed control at 62.5 g/ha ([11]; 62.5 g ai/ha, 100=total damage to plant, 0=no damage to plant, read-out: plant damage rating, Velvetleaf): 0%
- pest or weed control at 250 g/ha ([11]; 250 g ai/ha, read-out: Velvetleaf damage rating (100=total damage to plant; 0=no damage to plant)): 0%
- pest or weed control at 15.625 g/ha ([12]; 15.625 g ai/ha, read-out: Pigweed, Redroot damage rating (100=total damage to plant; 0=no damage to plant)): 0%
- pest or weed control at 62.5 g/ha ([12]; 62.5 g ai/ha, 100=total damage to plant, 0=no damage to plant, read-out: plant damage rating, Pigweed, Redroot): 0%
- pest or weed control at 250 g/ha ([12]; 250 g ai/ha, read-out: Pigweed, Redroot damage rating (100=total damage to plant; 0=no damage to plant)): 70%
